Measurements reported in publication PMC3119659, “Ligand Activation of the Prokaryotic Pentameric Ligand-Gated Ion Channel ELIC” (PLoS Biology, 2011).
pEC50: −log10 of the molar value. “Also recorded” adds a separate entry of the source. Like-named read-outs stand apart in the source and are kept apart here.

Key:
[1] = target: T1, ELIC (Dickeya chrysanthemi, UniProt P0C7B7); assay: cell-based; assay type: cell-based, Erwinia chrysanthemi
T1 construct: expressed in transfected cells; host or cells: Xenopus laevis oocytes (cRNA injection, pTLN vector)
T1 sequence (P0C7B7 whole entry): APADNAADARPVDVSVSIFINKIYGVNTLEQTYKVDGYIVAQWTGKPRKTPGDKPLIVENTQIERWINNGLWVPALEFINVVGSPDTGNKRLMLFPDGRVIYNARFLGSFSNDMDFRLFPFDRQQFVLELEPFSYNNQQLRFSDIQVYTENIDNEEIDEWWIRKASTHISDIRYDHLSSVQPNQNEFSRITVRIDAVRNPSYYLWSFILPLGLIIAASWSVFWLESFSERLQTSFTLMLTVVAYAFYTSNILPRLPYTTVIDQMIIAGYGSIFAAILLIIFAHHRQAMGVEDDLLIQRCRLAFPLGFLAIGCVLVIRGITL
Excerpt: To identify ligands that activate ELIC we have expressed the protein in Xenopus laevis oocytes and investigated the response to potential agonists by the two-electrode voltage-clamp technique. Based on the volume and chemical properties of the proposed ligand binding region and the presence of positively charged ions bound to this site, we reasoned that parts of the agonists might have a cationic character. […] Our library included different natural products such as amino acids and their derivatives, metabolites, and related synthetic substances (Figure S3A).
Constructs containing the gene of either the WT channel or point mutants preceded by the signal sequence of the chicken α7nAchR were cloned into the pTLN vector for expression in X. laevis oocytes. After linearization of the plasmid DNA by MluI, capped complementary RNA was transcribed with the mMessage mMachine kit (Ambion) and purified with the RNeasy kit (Qiagen). For expression, 1–50 ng of RNA was injected into defolliculated oocytes. Two-electrode voltage clamp measurements were performed one day after injection at 20°C (OC-725B, Warner Instrument Corp.). […] Cysteamine containing solutions were supplemented with 1 mM DTT.

[2] = target: T2, ELIC R91A (Dickeya chrysanthemi, UniProt P0C7B7, R91A); assay: Two-electrode voltage clamp of ELIC point mutant R91A in oocytes; assay type: cell-based, Erwinia chrysanthemi; details: for n (Hill coefficient) / pEC50: mutant R91A; for fold decrease of the EC50: mutant R91A compared with WT; for pEC50: read-out: EC50 of activation
T2 construct: expressed in transfected cells; host or cells: Xenopus laevis oocytes (cRNA injection, pTLN vector)
T2 sequence (P0C7B7 whole entry R91A): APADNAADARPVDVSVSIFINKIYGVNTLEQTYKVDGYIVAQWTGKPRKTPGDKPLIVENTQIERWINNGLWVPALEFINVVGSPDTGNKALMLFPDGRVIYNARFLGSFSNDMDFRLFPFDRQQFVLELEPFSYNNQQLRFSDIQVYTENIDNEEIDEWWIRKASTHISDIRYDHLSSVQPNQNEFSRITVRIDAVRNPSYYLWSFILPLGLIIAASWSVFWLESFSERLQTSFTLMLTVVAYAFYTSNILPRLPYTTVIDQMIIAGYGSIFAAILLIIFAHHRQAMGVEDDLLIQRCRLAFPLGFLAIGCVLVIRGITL
Excerpt: (§1) To investigate the role of residues surrounding the bound ligand for channel activation, we have mutated single residues to alanine and we have measured activation with the two-electrode voltage-clamp technique (Table 2). For many mutants there was no response to the addition of cysteamine. This was the case for all investigated residues of the principal site, such as Glu77 and Glu131, that may interact with the primary amino group and hydrophobic and aromatic residues (i.e., Phe187, Phe133, Tyr174, Ile79) that surround the aliphatic carbon atoms of the ligand. The effect of mutations on the complementary side, in contrast, was diverse and in some cases less drastic. The mutations of Phe19 on β-1 and Val40 on β-2 shifted the activation towards higher agonist concentrations (Figure 4B).
(§2) Constructs containing the gene of either the WT channel or point mutants preceded by the signal sequence of the chicken α7nAchR were cloned into the pTLN vector for expression in X. laevis oocytes. After linearization of the plasmid DNA by MluI, capped complementary RNA was transcribed with the mMessage mMachine kit (Ambion) and purified with the RNeasy kit (Qiagen). For expression, 1–50 ng of RNA was injected into defolliculated oocytes. Two-electrode voltage clamp measurements were performed one day after injection at 20°C (OC-725B, Warner Instrument Corp.). Currents were recorded in bath solutions containing 10 mM HEPES (pH 7), 130 mM NaCl, and the respective ligands. Cysteamine containing solutions were supplemented with 1 mM DTT.

[3] = target: T3, ELIC F19A (Dickeya chrysanthemi, UniProt P0C7B7, F19A); assay: Two-electrode voltage clamp of ELIC point mutant F19A in oocytes; assay type: cell-based, Erwinia chrysanthemi; details: read-out: EC50 of activation
T3 construct: expressed in transfected cells; host or cells: Xenopus laevis oocytes (cRNA injection, pTLN vector)
T3 sequence (P0C7B7 whole entry F19A): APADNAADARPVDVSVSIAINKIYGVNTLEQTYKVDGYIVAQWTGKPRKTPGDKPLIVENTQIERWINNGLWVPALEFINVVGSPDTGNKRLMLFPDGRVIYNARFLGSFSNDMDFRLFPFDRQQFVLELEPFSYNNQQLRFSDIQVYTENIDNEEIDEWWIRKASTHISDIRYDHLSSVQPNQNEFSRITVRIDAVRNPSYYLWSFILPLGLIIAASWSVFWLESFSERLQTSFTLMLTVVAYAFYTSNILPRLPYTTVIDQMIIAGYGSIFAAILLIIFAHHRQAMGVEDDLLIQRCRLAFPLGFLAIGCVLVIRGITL
Excerpt: as §1
as §2, with “Two-electrode voltage clamp measurements were performed one day after injection at 20°C (OC-725B, Warner Instrument Corp.).” left out, “Cysteamine containing solutions were supplemented with 1 mM DTT.” left out

[4] = target: T4, ELIC Tyr174 mutated to alanine (Dickeya chrysanthemi, UniProt P0C7B7, Y174A); assay: Two-electrode voltage clamp of ELIC Tyr174 alanine mutant; assay type: cell-based, Erwinia chrysanthemi
T4 construct: expressed in transfected cells; host or cells: Xenopus laevis oocytes (cRNA injection, pTLN vector)
T4 sequence (P0C7B7 whole entry Y174A): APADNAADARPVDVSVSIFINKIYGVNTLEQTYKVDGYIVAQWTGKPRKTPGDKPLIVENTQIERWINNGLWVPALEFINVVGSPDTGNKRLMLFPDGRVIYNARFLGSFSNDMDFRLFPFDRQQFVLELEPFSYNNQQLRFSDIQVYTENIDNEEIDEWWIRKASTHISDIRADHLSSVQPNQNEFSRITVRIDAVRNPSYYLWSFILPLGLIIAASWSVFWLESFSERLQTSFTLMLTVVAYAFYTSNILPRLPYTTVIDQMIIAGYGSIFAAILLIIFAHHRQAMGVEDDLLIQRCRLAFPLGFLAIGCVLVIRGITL
Excerpt: as §1
as §2, with “Two-electrode voltage clamp measurements were performed one day after injection at 20°C (OC-725B, Warner Instrument Corp.).” left out, “Cysteamine containing solutions were supplemented with 1 mM DTT.” left out

[5] = target: T1, ELIC; assay: Patch clamp of excised outside-out patches, fast solution exchange (activation and deactivation kinetics); assay type: cell-based, Erwinia chrysanthemi; details: -60 mV, n = 19, errors s.d., upper limit
Method: We have thus used this molecule as an agonist in most subsequent experiments. […] Stable currents over a period of seconds were obtained upon addition of high micromolar concentrations of cysteamine to the extracellular medium (Figure 3A). At longer incubations with the ligand, however, the currents decayed, which is indicative for a slow desensitization of the channel (Figure S4A). […] To follow the time-course of activation and deactivation, we have investigated excised outside-out patches in response to fast solution exchange. A similar phenotype of currents as previously seen in two-electrode voltage clamp recordings, although with faster kinetics of desensitization, was also observed for macroscopic currents in a patch clamp experiment (Figure 3B, Figure S4B). At 5 mM cysteamine, channel activation and deactivation can be approximated by exponential functions with time constants in the ms range (τact = 20±5 ms, n = 19, τdeact = 53±7 ms, n = 19, all errors are s.d.). […]
Membrane patches of X. laevis oocytes were recorded in the excised outside-out configuration 2–3 d after injection of mRNA with an Axopatch 200B amplifier (Axon Instruments) at 20°C. Data were sampled at 100 µs, filtered with 1,000 Hz, and analyzed using Clampfit (Axon Instruments, Inc.). […]

[6] = target: T5, ELIC Ile79 mutated to alanine (Dickeya chrysanthemi, UniProt P0C7B7, I79A); assay: Two-electrode voltage clamp of ELIC Ile79 alanine mutant; assay type: cell-based, Erwinia chrysanthemi
T5 construct: expressed in transfected cells; host or cells: Xenopus laevis oocytes (cRNA injection, pTLN vector)
T5 sequence (P0C7B7 whole entry I79A): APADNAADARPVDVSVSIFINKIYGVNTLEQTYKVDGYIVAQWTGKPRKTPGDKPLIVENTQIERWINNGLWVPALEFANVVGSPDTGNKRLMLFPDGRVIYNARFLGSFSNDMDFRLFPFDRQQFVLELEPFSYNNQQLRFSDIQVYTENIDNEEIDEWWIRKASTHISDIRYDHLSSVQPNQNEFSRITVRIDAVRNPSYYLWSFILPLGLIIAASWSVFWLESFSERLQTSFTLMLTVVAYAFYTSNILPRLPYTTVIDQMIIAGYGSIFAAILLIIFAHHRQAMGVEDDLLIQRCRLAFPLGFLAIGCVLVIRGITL
Excerpt: as §1
as §2, with “Two-electrode voltage clamp measurements were performed one day after injection at 20°C (OC-725B, Warner Instrument Corp.).” left out, “Cysteamine containing solutions were supplemented with 1 mM DTT.” left out

[7] = target: T6, ELIC Phe133 mutated to alanine (Dickeya chrysanthemi, UniProt P0C7B7, F133A); assay: Two-electrode voltage clamp of ELIC Phe133 alanine mutant; assay type: cell-based, Erwinia chrysanthemi
T6 construct: expressed in transfected cells; host or cells: Xenopus laevis oocytes (cRNA injection, pTLN vector)
T6 sequence (P0C7B7 whole entry F133A): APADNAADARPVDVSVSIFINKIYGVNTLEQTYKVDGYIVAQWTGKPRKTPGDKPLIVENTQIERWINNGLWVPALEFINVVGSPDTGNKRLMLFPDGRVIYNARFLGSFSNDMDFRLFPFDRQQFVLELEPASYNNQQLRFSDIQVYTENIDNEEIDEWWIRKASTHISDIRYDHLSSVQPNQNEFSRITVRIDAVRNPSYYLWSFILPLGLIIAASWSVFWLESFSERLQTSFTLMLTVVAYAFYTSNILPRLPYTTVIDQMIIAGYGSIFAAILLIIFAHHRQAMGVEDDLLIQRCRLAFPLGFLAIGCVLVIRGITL
Excerpt: as §1
as §2, with “Two-electrode voltage clamp measurements were performed one day after injection at 20°C (OC-725B, Warner Instrument Corp.).” left out, “Cysteamine containing solutions were supplemented with 1 mM DTT.” left out

[8] = target: T7, ELIC Asn103 mutated to alanine (Dickeya chrysanthemi, UniProt P0C7B7, N103A); assay: Two-electrode voltage clamp of ELIC Asn103 alanine mutant; assay type: cell-based, Erwinia chrysanthemi
T7 construct: expressed in transfected cells; host or cells: Xenopus laevis oocytes (cRNA injection, pTLN vector)
T7 sequence (P0C7B7 whole entry N103A): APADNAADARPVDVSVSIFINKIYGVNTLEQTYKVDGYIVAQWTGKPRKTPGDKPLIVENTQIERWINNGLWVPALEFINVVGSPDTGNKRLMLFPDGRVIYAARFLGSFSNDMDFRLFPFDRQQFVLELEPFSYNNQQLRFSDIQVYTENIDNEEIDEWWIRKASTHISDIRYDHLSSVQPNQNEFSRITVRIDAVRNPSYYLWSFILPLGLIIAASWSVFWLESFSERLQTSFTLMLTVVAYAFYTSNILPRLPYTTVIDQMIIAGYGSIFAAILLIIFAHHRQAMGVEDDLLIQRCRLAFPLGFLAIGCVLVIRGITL
Excerpt: as §1
as §2, with “Two-electrode voltage clamp measurements were performed one day after injection at 20°C (OC-725B, Warner Instrument Corp.).” left out, “Cysteamine containing solutions were supplemented with 1 mM DTT.” left out

[9] = target: T8, ELIC Glu131 mutated to alanine (Dickeya chrysanthemi, UniProt P0C7B7, E131A); assay: Two-electrode voltage clamp of ELIC Glu131 alanine mutant; assay type: cell-based, Erwinia chrysanthemi
T8 construct: expressed in transfected cells; host or cells: Xenopus laevis oocytes (cRNA injection, pTLN vector)
T8 sequence (P0C7B7 whole entry E131A): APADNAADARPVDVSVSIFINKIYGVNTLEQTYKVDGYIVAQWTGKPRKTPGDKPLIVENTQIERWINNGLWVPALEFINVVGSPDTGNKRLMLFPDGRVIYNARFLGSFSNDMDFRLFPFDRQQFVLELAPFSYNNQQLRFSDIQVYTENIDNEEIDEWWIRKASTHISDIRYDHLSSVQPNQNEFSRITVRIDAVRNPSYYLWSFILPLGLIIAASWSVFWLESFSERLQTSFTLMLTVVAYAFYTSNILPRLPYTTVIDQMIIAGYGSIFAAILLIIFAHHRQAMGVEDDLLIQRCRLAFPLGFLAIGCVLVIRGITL
Excerpt: as §1
as §2, with “Two-electrode voltage clamp measurements were performed one day after injection at 20°C (OC-725B, Warner Instrument Corp.).” left out, “Cysteamine containing solutions were supplemented with 1 mM DTT.” left out

[10] = target: T9, ELIC F246A (Dickeya chrysanthemi, UniProt P0C7B7, F246A); assay: Two-electrode voltage clamp of ELIC pore mutant F246A in oocytes; assay type: cell-based, Erwinia chrysanthemi
T9 construct: expressed in transfected cells; host or cells: Xenopus laevis oocytes (cRNA injection, pTLN vector)
T9 sequence (P0C7B7 whole entry F246A): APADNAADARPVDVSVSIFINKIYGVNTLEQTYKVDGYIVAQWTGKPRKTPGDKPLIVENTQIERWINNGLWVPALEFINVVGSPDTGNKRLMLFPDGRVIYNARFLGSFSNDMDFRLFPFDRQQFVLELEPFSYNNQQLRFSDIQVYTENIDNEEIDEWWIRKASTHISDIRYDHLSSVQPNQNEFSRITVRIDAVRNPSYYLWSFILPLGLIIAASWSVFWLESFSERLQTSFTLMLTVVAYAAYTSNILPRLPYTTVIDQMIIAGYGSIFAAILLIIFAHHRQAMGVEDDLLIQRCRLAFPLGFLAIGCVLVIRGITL
Excerpt: In contrast to the extracellular domain, the pore of ELIC resembles cation selective members of the family that include nAChRs, serotonin receptors, and the prokaryotic channel GLIC (Figure S1G). In cation selective pLGICs, three layers of hydrophobic side-chains provide an overall apolar character to the extracellular half of the pore region while the following two layers of polar residues and a layer of negatively charged residues render the intracellular half hydrophilic,[30]. […] To investigate the role of this aromatic group for channel opening, we have mutated it to alanine and studied the mutant by X-ray crystallography and electrophysiology. […] This shift is due to a mutation of a residue located remote from the ligand binding site and thus likely reflects a decreased efficacy of the channel.
as §2, with “Two-electrode voltage clamp measurements were performed one day after injection at 20°C (OC-725B, Warner Instrument Corp.).” left out, “Cysteamine containing solutions were supplemented with 1 mM DTT.” left out

[11] = target: T10, ELIC Glu77 mutated to alanine (Dickeya chrysanthemi, UniProt P0C7B7, E77A); assay: Two-electrode voltage clamp of ELIC Glu77 alanine mutant; assay type: cell-based, Erwinia chrysanthemi
T10 construct: expressed in transfected cells; host or cells: Xenopus laevis oocytes (cRNA injection, pTLN vector)
T10 sequence (P0C7B7 whole entry E77A): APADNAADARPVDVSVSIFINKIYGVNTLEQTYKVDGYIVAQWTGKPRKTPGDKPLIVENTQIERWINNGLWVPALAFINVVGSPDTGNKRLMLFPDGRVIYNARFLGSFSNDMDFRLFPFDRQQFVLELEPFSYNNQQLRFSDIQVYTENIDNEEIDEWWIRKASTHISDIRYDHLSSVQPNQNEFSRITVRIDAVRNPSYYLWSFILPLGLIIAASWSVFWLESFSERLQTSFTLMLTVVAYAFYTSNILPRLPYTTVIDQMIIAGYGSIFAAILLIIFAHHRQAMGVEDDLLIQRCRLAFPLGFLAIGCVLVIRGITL
Excerpt: as §1
as §2, with “Two-electrode voltage clamp measurements were performed one day after injection at 20°C (OC-725B, Warner Instrument Corp.).” left out, “Cysteamine containing solutions were supplemented with 1 mM DTT.” left out

[12] = target: T11, ELIC Phe187 mutated to alanine (Dickeya chrysanthemi, UniProt P0C7B7, F187A); assay: Two-electrode voltage clamp of ELIC Phe187 alanine mutant; assay type: cell-based, Erwinia chrysanthemi
T11 construct: expressed in transfected cells; host or cells: Xenopus laevis oocytes (cRNA injection, pTLN vector)
T11 sequence (P0C7B7 whole entry F187A): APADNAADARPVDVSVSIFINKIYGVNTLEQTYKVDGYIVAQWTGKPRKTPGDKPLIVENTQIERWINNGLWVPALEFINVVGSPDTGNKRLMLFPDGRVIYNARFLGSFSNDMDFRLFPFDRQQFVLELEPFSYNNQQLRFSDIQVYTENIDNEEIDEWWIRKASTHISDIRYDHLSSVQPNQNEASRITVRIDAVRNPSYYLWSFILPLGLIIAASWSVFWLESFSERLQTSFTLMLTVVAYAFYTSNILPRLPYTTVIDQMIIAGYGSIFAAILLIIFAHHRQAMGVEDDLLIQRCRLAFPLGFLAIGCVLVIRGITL
Excerpt: as §1
as §2, with “Two-electrode voltage clamp measurements were performed one day after injection at 20°C (OC-725B, Warner Instrument Corp.).” left out, “Cysteamine containing solutions were supplemented with 1 mM DTT.” left out

[13] = Protonation of the sulfhydryl group of cysteamine; assay type: physicochemical; details: at the pH of the recording solution
[14] = target: T12, ELIC V40A (Dickeya chrysanthemi, UniProt P0C7B7, V40A); assay: Two-electrode voltage clamp of ELIC point mutant V40A in oocytes; assay type: cell-based, Erwinia chrysanthemi; details: for pEC50: read-out: EC50 of activation
T12 construct: expressed in transfected cells; host or cells: Xenopus laevis oocytes (cRNA injection, pTLN vector)
T12 sequence (P0C7B7 whole entry V40A): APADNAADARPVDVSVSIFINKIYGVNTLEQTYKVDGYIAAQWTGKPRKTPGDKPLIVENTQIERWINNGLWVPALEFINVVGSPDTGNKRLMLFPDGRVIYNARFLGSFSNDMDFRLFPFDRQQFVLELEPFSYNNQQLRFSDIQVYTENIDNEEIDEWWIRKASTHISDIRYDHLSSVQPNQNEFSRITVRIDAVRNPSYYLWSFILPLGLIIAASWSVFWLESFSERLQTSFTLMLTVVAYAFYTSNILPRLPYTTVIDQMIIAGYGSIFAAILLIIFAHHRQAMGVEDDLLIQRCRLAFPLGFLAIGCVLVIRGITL
Excerpt: as §1, §2

[15] = ligand added to the extracellular solution, 10 mM, -60 mV, compared with 2 mM cysteamine
[16] = WT, pH 7.0, two-electrode voltage clamp, -60 mV, fit to Hill equation, read-out: EC50 of activation of ELIC
[17] = pH 7.0, averages and s.d. of six measurements

CCCCN [butylamine]
activating current response of ELIC to the ligand [1, 15]: weak

NCCCCCN [cadaverine]
activating current response of ELIC to the ligand [1, 15]: not

NCCS [cysteamine]
n (Hill coefficient) [2]: 2.6 | fold decrease of the EC50 [2]: 4 fold | pEC50 [2]: 4.06 | pEC50 [3]: < 2.00 | response to the addition of the ligand [4]: no response | τact, time constant of channel activation ([5]; 5 mM cysteamine): 20 ± 5 ms | τdeact, time constant of channel deactivation ([5]; washout of 5 mM cysteamine): 53 ± 7 ms | response to the addition of the ligand [6]: no response | response to the addition of the ligand [7]: no response | response to the addition of the ligand [8]: did not show an activating response | response to the addition of the ligand [9]: no response | n (Hill coefficient) [10]: 3.0 | pEC50 ([10]; read-out: EC50 of activation): 2.59 | n (Hill coefficient) ([1]; WT, pH 7.0): 2.7 | pEC50 [1, 16]: 3.44 | pEC50 ([1]; WT, voltage-independent activation, read-out: EC50 of activation of ELIC): 3.44 | activating current response of ELIC to the ligand [1, 15]: most efficacious; also recorded: strongest response at low ligand concentration | Imax/Imax cysteamine [1, 17]: 1 | response to the addition of the ligand [11]: no response | response to the addition of the ligand [12]: no response | sulfhydryl groups protonated [13]: > 96% | n (Hill coefficient) [14]: 2.6 | pEC50 [14]: 2.72

NCC(=O)O [glycine]
activating current response of ELIC to the ligand [1]: absent

NCCCS [homocysteamine]
activating current response of ELIC to the ligand [1, 15]: small

CC(C)N [isopropylamine]
activating current response of ELIC to the ligand [1, 15]: weak

NCCCCN [putrescine]
pEC50 [1]: 1.80 | activating current response of ELIC to the ligand [1]: activate ELIC; also recorded: only observed at higher pH | n (Hill coefficient) ([1]; pH 8): 2.4 | n (Hill coefficient), concentration of monovalent putrescine ([1]; pH 8): 2.4 | Imax/Imax cysteamine ([1]; pH 9): 1.03±0.07

aminopropanol
n (Hill coefficient) [2]: 2.45 | fold decrease of the EC50 [2]: 2 fold | pEC50 [2]: 3.29 | n (Hill coefficient) ([1]; WT, pH 7.0): 3.2 | pEC50 [1, 16]: 2.92 | activating current response of ELIC to the ligand [1, 15]: strong activation | Imax/Imax cysteamine [1, 17]: 1.00±0.014 | pEC50 [14]: < 2.00

diaminopropane
n (Hill coefficient) ([1]; WT, pH 8.0): 3.1 | pEC50 ([1]; WT, pH 8.0, two-electrode voltage clamp, -60 mV, read-out: EC50 of activation of ELIC): 2.52 | Imax/Imax cysteamine ([1]; pH 9.0, averages and s.d. of six measurements): 1.08±0.03
